# Measurements published in patent publication US20260256792A1, “TREATMENT OF CHRONIC SPONTANEOUS URTICARIA BY ADMINISTERING (R)-2-[3-[4-AMINO-3-(2-FLUORO-4-PHENOXY-PHENYL)PYRAZOLO[3,4-D]PYRIMIDIN-1-YL]PIPERIDINE-1-CARBONYL]-4-METHYL-4-[4-(OXETAN-3-YL)PIPERAZIN-1-YL]PENT-2-ENENITRILE” (priority 2023, published 2026).
# Tested on: moderate-to-severe chronic spontaneous urticaria (CSU)
# Experiment: Phase 2 CSU study: itch severity score over 7 days (ISS7)
# Assay type: in vivo, human
# Conditions: Omalizumab-Naïve Population
# Description: The study comprises a 12 week, randomized, double-blind, placebo-controlled, multi-center, dose-ranging efficacy and safety phase, followed by a 40 week open label extension (OLE) phase (see FIG. 1). The study consists of three phases and an optional OLE phase. […] Clinically, CSU is characterized by the spontaneous and recurrent appearance of pruritic hives. The proposed primary endpoints were the UAS7 at Week 12 in EU and EU reference countries and the ISS7 in the US. Regardless of where a participant was from, all assessments were the same. The UAS7 score is a composite score containing both the HSS7 and the ISS7. This allowed a global assessment of the two key components of urticaria: hives and itch. […] The UAS is a validated PRO measure. […] The daily UAS scores range from 0 to 6 point/day. […] Patients were to complete the UAS using the e-diary. […] The following secondary endpoints were to be analyzed using the same approach as for the primary endpoint: • Change from baseline in UAS7 at Week 4 • Change from baseline in UAS7 at Week 12 (for US and US reference countries) • Change from baseline in ISS7 at Week 12 (except US and US reference countries) • Change from baseline in HSS7 at Week 12
smiles,measurement,setting,value
"CC(C)(C=C(C#N)C(=O)N1CCC[C@@H](n2nc(-c3ccc(Oc4ccccc4)cc3F)c3c(N)ncnc32)C1)N1CCN(C2COC2)CC1 [rilzabrutinib, (R)-2-[3-[4-amino-3-(2-fluoro-4-phenoxy-phenyl)pyrazolo[3,4-d]pyrimidin-1-yl]piperidine-1-carbonyl]-4-methyl-4-[4-(oxetan-3-yl)piperazin-1-yl]pent-2-enenitrile]",Imputed non-responder n (%) (ISS7 reduction of 5 points or more),"400 mg BID, Week 3",0 n (%)
same,Non-responder n (%) (ISS7 reduction of 5 points or more),"400 mg BID, Week 3",17 (48.6) n (%)
same,OR for rilzabrutinib vs. placebo (ISS7 reduction of 5 points or more),"400 mg BID, Week 3",2.418
same,RRD (%) for rilzabrutinib vs. placebo (ISS7 reduction of 5 points or more),"400 mg BID, Week 3",21.1%
same,Responder n (%) (ISS7 reduction of 5 points or more),"400 mg BID, Week 3",18 (51.4) n (%)
same,Imputed non-responder n (%) (ISS7 reduction of 5 points or more),"400 mg BID, Week 4",2 (5.7) n (%)
same,Non-responder n (%) (ISS7 reduction of 5 points or more),"400 mg BID, Week 4",17 (48.6) n (%)
same,OR for rilzabrutinib vs. placebo (ISS7 reduction of 5 points or more),"400 mg BID, Week 4",1.476
same,Responder n (%) (ISS7 reduction of 5 points or more),"400 mg BID, Week 4",18 (51.4) n (%)
same,Imputed non-responder n (%) (ISS7 reduction of 5 points or more),"400 mg BID, Week 5",2 (5.7) n (%)
same,Non-responder n (%) (ISS7 reduction of 5 points or more),"400 mg BID, Week 5",15 (42.9) n (%)
same,OR for rilzabrutinib vs. placebo (ISS7 reduction of 5 points or more),"400 mg BID, Week 5",1.334
same,RRD (%) for rilzabrutinib vs. placebo (ISS7 reduction of 5 points or more),"400 mg BID, Week 5",7.3%
same,Responder n (%) (ISS7 reduction of 5 points or more),"400 mg BID, Week 5",20 (57.1) n (%)
same,Imputed non-responder n (%) (ISS7 reduction of 5 points or more),"400 mg BID, Week 6",2 (5.7) n (%)
same,Non-responder n (%) (ISS7 reduction of 5 points or more),"400 mg BID, Week 6",17 (48.6) n (%)
same,OR for rilzabrutinib vs. placebo (ISS7 reduction of 5 points or more),"400 mg BID, Week 6",1.326
same,RRD (%) for rilzabrutinib vs. placebo (ISS7 reduction of 5 points or more),"400 mg BID, Week 6",7.1%
same,Responder n (%) (ISS7 reduction of 5 points or more),"400 mg BID, Week 6",18 (51.4) n (%)
same,Imputed non-responder n (%) (ISS7 reduction of 5 points or more),"400 mg BID, Week 7",2 (5.7) n (%)
same,Non-responder n (%) (ISS7 reduction of 5 points or more),"400 mg BID, Week 7",16 (45.7) n (%)
same,OR for rilzabrutinib vs. placebo (ISS7 reduction of 5 points or more),"400 mg BID, Week 7",1.533
same,Responder n (%) (ISS7 reduction of 5 points or more),"400 mg BID, Week 7",19 (54.3) n (%)
same,Imputed non-responder n (%) (ISS7 reduction of 5 points or more),"400 mg BID, Week 8",3 (8.6) n (%)
same,Non-responder n (%) (ISS7 reduction of 5 points or more),"400 mg BID, Week 8",13 (37.1) n (%)
same,OR for rilzabrutinib vs. placebo (ISS7 reduction of 5 points or more),"400 mg BID, Week 8",1.690
same,RRD (%) for rilzabrutinib vs. placebo (ISS7 reduction of 5 points or more),"400 mg BID, Week 8",13.7%
same,Responder n (%) (ISS7 reduction of 5 points or more),"400 mg BID, Week 8",22 (62.9) n (%)
same,Imputed non-responder n (%) (ISS7 reduction of 5 points or more),"400 mg BID, Week 9",7 (20.0) n (%)
same,Non-responder n (%) (ISS7 reduction of 5 points or more),"400 mg BID, Week 9",16 (45.7) n (%)
same,OR for rilzabrutinib vs. placebo (ISS7 reduction of 5 points or more),"400 mg BID, Week 9",1.462
same,Responder n (%) (ISS7 reduction of 5 points or more),"400 mg BID, Week 9",19 (54.3) n (%)
same,Imputed non-responder n (%) (ISS7 reduction of 5 points or more),"400 mg BID, Week 10",8 (22.9) n (%)
same,Non-responder n (%) (ISS7 reduction of 5 points or more),"400 mg BID, Week 10",19 (54.3) n (%)
same,OR for rilzabrutinib vs. placebo (ISS7 reduction of 5 points or more),"400 mg BID, Week 10",0.883
same,RRD (%) for rilzabrutinib vs. placebo (ISS7 reduction of 5 points or more),"400 mg BID, Week 10",−3.1%
same,Responder n (%) (ISS7 reduction of 5 points or more),"400 mg BID, Week 10",16 (45.7) n (%)
same,Imputed non-responder n (%) (ISS7 reduction of 5 points or more),"400 mg BID, Week 11",7 (20.0) n (%)
same,Non-responder n (%) (ISS7 reduction of 5 points or more),"400 mg BID, Week 11",16 (45.7) n (%)
same,OR for rilzabrutinib vs. placebo (ISS7 reduction of 5 points or more),"400 mg BID, Week 11",0.963
same,RRD (%) for rilzabrutinib vs. placebo (ISS7 reduction of 5 points or more),"400 mg BID, Week 11",−1.0%
same,Responder n (%) (ISS7 reduction of 5 points or more),"400 mg BID, Week 11",19 (54.3) n (%)
same,Imputed non-responder n (%) (ISS7 reduction of 5 points or more),"400 mg BID, Week 12",11 (31.4) n (%)
same,Non-responder n (%) (ISS7 reduction of 5 points or more),"400 mg BID, Week 12",18 (51.4) n (%)
same,OR for rilzabrutinib vs. placebo (ISS7 reduction of 5 points or more),"400 mg BID, Week 12",1.095
same,RRD (%) for rilzabrutinib vs. placebo (ISS7 reduction of 5 points or more),"400 mg BID, Week 12",2.4%
same,Responder n (%) (ISS7 reduction of 5 points or more),"400 mg BID, Week 12",17 (48.6) n (%)
same,Imputed non-responder n (%) (ISS7 reduction of 5 points or more),"400 mg QPM, Week 1",0 n (%)
same,Non-responder n (%) (ISS7 reduction of 5 points or more),"400 mg QPM, Week 1",25 (67.6) n (%)
same,OR for rilzabrutinib vs. placebo (ISS7 reduction of 5 points or more),"400 mg QPM, Week 1",1.691
same,Responder n (%) (ISS7 reduction of 5 points or more),"400 mg QPM, Week 1",12 (32.4) n (%)
same,Imputed non-responder n (%) (ISS7 reduction of 5 points or more),"400 mg QPM, Week 2",0 n (%)
same,Non-responder n (%) (ISS7 reduction of 5 points or more),"400 mg QPM, Week 2",23 (62.2) n (%)
same,OR for rilzabrutinib vs. placebo (ISS7 reduction of 5 points or more),"400 mg QPM, Week 2",1.637
same,Responder n (%) (ISS7 reduction of 5 points or more),"400 mg QPM, Week 2",14 (37.8) n (%)
same,Imputed non-responder n (%) (ISS7 reduction of 5 points or more),"400 mg QPM, Week 3",0 n (%)
same,Non-responder n (%) (ISS7 reduction of 5 points or more),"400 mg QPM, Week 3",20 (54.1) n (%)
same,OR for rilzabrutinib vs. placebo (ISS7 reduction of 5 points or more),"400 mg QPM, Week 3",1.910
same,RRD (%) for rilzabrutinib vs. placebo (ISS7 reduction of 5 points or more),"400 mg QPM, Week 3",16.0%
same,Responder n (%) (ISS7 reduction of 5 points or more),"400 mg QPM, Week 3",17 (45.9) n (%)
same,Imputed non-responder n (%) (ISS7 reduction of 5 points or more),"400 mg QPM, Week 4",1 (2.7) n (%)
same,Non-responder n (%) (ISS7 reduction of 5 points or more),"400 mg QPM, Week 4",20 (54.1) n (%)
same,OR for rilzabrutinib vs. placebo (ISS7 reduction of 5 points or more),"400 mg QPM, Week 4",1.231
same,RRD (%) for rilzabrutinib vs. placebo (ISS7 reduction of 5 points or more),"400 mg QPM, Week 4",5.0%
same,Responder n (%) (ISS7 reduction of 5 points or more),"400 mg QPM, Week 4",17 (45.9) n (%)
same,Imputed non-responder n (%) (ISS7 reduction of 5 points or more),"400 mg QPM, Week 5",2 (5.4) n (%)
same,Non-responder n (%) (ISS7 reduction of 5 points or more),"400 mg QPM, Week 5",21 (56.8) n (%)
same,OR for rilzabrutinib vs. placebo (ISS7 reduction of 5 points or more),"400 mg QPM, Week 5",0.787
same,RRD (%) for rilzabrutinib vs. placebo (ISS7 reduction of 5 points or more),"400 mg QPM, Week 5",−6.3%
same,Responder n (%) (ISS7 reduction of 5 points or more),"400 mg QPM, Week 5",16 (43.2) n (%)
same,Imputed non-responder n (%) (ISS7 reduction of 5 points or more),"400 mg QPM, Week 6",4 (10.8) n (%)
same,Non-responder n (%) (ISS7 reduction of 5 points or more),"400 mg QPM, Week 6",20 (54.1) n (%)
same,OR for rilzabrutinib vs. placebo (ISS7 reduction of 5 points or more),"400 mg QPM, Week 6",1.088
same,RRD (%) for rilzabrutinib vs. placebo (ISS7 reduction of 5 points or more),"400 mg QPM, Week 6",2.0%
same,Responder n (%) (ISS7 reduction of 5 points or more),"400 mg QPM, Week 6",17 (45.9) n (%)
same,Imputed non-responder n (%) (ISS7 reduction of 5 points or more),"400 mg QPM, Week 7",6 (16.2) n (%)
same,Non-responder n (%) (ISS7 reduction of 5 points or more),"400 mg QPM, Week 7",19 (51.4) n (%)
same,OR for rilzabrutinib vs. placebo (ISS7 reduction of 5 points or more),"400 mg QPM, Week 7",1.176
same,RRD (%) for rilzabrutinib vs. placebo (ISS7 reduction of 5 points or more),"400 mg QPM, Week 7",4.0%
same,Responder n (%) (ISS7 reduction of 5 points or more),"400 mg QPM, Week 7",18 (48.6) n (%)
same,Imputed non-responder n (%) (ISS7 reduction of 5 points or more),"400 mg QPM, Week 8",7 (18.9) n (%)
same,Non-responder n (%) (ISS7 reduction of 5 points or more),"400 mg QPM, Week 8",20 (54.1) n (%)
same,OR for rilzabrutinib vs. placebo (ISS7 reduction of 5 points or more),"400 mg QPM, Week 8",0.843
same,RRD (%) for rilzabrutinib vs. placebo (ISS7 reduction of 5 points or more),"400 mg QPM, Week 8",−4.4%
same,Responder n (%) (ISS7 reduction of 5 points or more),"400 mg QPM, Week 8",17 (45.9) n (%)
same,Imputed non-responder n (%) (ISS7 reduction of 5 points or more),"400 mg QPM, Week 9",6 (16.2) n (%)
same,Non-responder n (%) (ISS7 reduction of 5 points or more),"400 mg QPM, Week 9",18 (48.6) n (%)
same,OR for rilzabrutinib vs. placebo (ISS7 reduction of 5 points or more),"400 mg QPM, Week 9",1.328
same,RRD (%) for rilzabrutinib vs. placebo (ISS7 reduction of 5 points or more),"400 mg QPM, Week 9",6.5%
same,Responder n (%) (ISS7 reduction of 5 points or more),"400 mg QPM, Week 9",19 (51.4) n (%)
same,Imputed non-responder n (%) (ISS7 reduction of 5 points or more),"400 mg QPM, Week 10",6 (16.2) n (%)
